Laboratory results reported in PubChem BioAssay (NCI).
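GI50 is the concentration that inhibits growth by half. TGI: concentration producing complete growth inhibition.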

Experiments:
Test in all cases: DTP human tumour cell line panel, 384-well format
NCI-H23 lung = tested on: NCI-H23 lung
IGROV1 ovarian = tested on: IGROV1 ovarian
RXF 393 renal = tested on: RXF 393 renal
MOLT-4 leukemia = tested on: MOLT-4 leukemia
HCT-15 colon = tested on: HCT-15 colon
MDA-MB-468 breast = tested on: MDA-MB-468 breast
CAKI-1 renal = tested on: CAKI-1 renal
SN12C renal = tested on: SN12C renal
SW-620 colon = tested on: SW-620 colon
MDA-MB-231 breast = tested on: MDA-MB-231 breast
UACC-257 melanoma = tested on: UACC-257 melanoma
HOP-62 NSCLC = tested on: HOP-62 NSCLC
SNB-75 CNS = tested on: SNB-75 CNS
CCRF-CEM leukemia = tested on: CCRF-CEM leukemia
SK-MEL-5 melanoma = tested on: SK-MEL-5 melanoma
M14 melanoma = tested on: M14 melanoma
HT29 colon = tested on: HT29 colon
SNB-19 CNS = tested on: SNB-19 CNS
MALME-3M melanoma = tested on: MALME-3M melanoma
OVCAR-8 ovarian = tested on: OVCAR-8 ovarian
A498 renal = tested on: A498 renal
HL-60(TB) leukemia = tested on: HL-60(TB) leukemia
BT-549 breast = tested on: BT-549 breast
SK-MEL-28 melanoma = tested on: SK-MEL-28 melanoma
HCC-2998 colon = tested on: HCC-2998 colon
RPMI-8226 leukemia = tested on: RPMI-8226 leukemia
MCF7 breast = tested on: MCF7 breast
COLO 205 colon = tested on: COLO 205 colon
NCI-H460 NSCLC = tested on: NCI-H460 NSCLC
SF-268 CNS = tested on: SF-268 CNS
UACC-62 melanoma = tested on: UACC-62 melanoma
SF-295 CNS = tested on: SF-295 CNS
NCI/ADR-RES ovarian = tested on: NCI/ADR-RES ovarian
OVCAR-5 ovarian = tested on: OVCAR-5 ovarian
SK-OV-3 ovarian = tested on: SK-OV-3 ovarian
HOP-92 NSCLC = tested on: HOP-92 NSCLC
SK-MEL-2 melanoma = tested on: SK-MEL-2 melanoma
SR leukemia = tested on: SR leukemia
U251 glioblastoma = tested on: U251 glioblastoma
NCI-H226 lung = tested on: NCI-H226 lung
ACHN renal = tested on: ACHN renal
MDA-MB-435 melanoma = tested on: MDA-MB-435 melanoma
TK-10 renal = tested on: TK-10 renal
HS 578T breast = tested on: HS 578T breast
NCI-H322M lung = tested on: NCI-H322M lung
A549 NSCLC = tested on: A549 NSCLC
EKVX NSCLC = tested on: EKVX NSCLC
NCI-H522 lung = tested on: NCI-H522 lung
T-47D breast = tested on: T-47D breast
786-0 renal = tested on: 786-0 renal
DU-145 prostate = tested on: DU-145 prostate
OVCAR-4 ovarian = tested on: OVCAR-4 ovarian
OVCAR-3 ovarian = tested on: OVCAR-3 ovarian
SF-539 CNS = tested on: SF-539 CNS
PC-3 prostate = tested on: PC-3 prostate
KM12 colon = tested on: KM12 colon

CC1(C)CCC2=C(O1)c1ccccc1C(=O)C2=O
GI50 (NCI-H23 lung): 1.37 µM
TGI (NCI-H23 lung): 2.67 µM
GI50 (IGROV1 ovarian): 2.02 µM
TGI (IGROV1 ovarian): 3.82 µM
GI50 (RXF 393 renal): 1.93 µM
TGI (RXF 393 renal): 3.35 µM
GI50 (MOLT-4 leukemia): 1.76 µM
TGI (MOLT-4 leukemia): 3.17 µM
GI50 (HCT-15 colon): 1.84 µM
TGI (HCT-15 colon): 3.26 µM
GI50 (MDA-MB-468 breast): 1.2 µM
TGI (MDA-MB-468 breast): 2.45 µM
GI50 (CAKI-1 renal): 1.87 µM
TGI (CAKI-1 renal): 3.28 µM
GI50 (SN12C renal): 1.61 µM
TGI (SN12C renal): 2.98 µM
GI50 (SW-620 colon): 1.79 µM
TGI (SW-620 colon): 3.2 µM
GI50 (MDA-MB-231 breast): 1.88 µM
TGI (MDA-MB-231 breast): 3.54 µM
GI50 (UACC-257 melanoma): 1.67 µM
TGI (UACC-257 melanoma): 3.05 µM
GI50 (HOP-62 NSCLC): 1.61 µM
TGI (HOP-62 NSCLC): 2.98 µM
GI50 (SNB-75 CNS): 0.95 µM
TGI (SNB-75 CNS): 2.14 µM
GI50 (CCRF-CEM leukemia): 1.89 µM
TGI (CCRF-CEM leukemia): 3.32 µM
GI50 (SK-MEL-5 melanoma): 1.75 µM
TGI (SK-MEL-5 melanoma): 3.14 µM
GI50 (M14 melanoma): 1.94 µM
TGI (M14 melanoma): 3.37 µM
GI50 (HT29 colon): 1.88 µM
TGI (HT29 colon): 3.31 µM
GI50 (SNB-19 CNS): 1.88 µM
TGI (SNB-19 CNS): 3.43 µM
GI50 (MALME-3M melanoma): 1.99 µM
TGI (MALME-3M melanoma): 3.42 µM
GI50 (OVCAR-8 ovarian): 1.98 µM
TGI (OVCAR-8 ovarian): 3.72 µM
GI50 (A498 renal): 1.94 µM
TGI (A498 renal): 3.47 µM
GI50 (HL-60(TB) leukemia): 1.44 µM
TGI (HL-60(TB) leukemia): 2.79 µM
GI50 (BT-549 breast): 1.77 µM
TGI (BT-549 breast): 3.16 µM
GI50 (SK-MEL-28 melanoma): 2.48 µM
TGI (SK-MEL-28 melanoma): 3.96 µM
GI50 (HCC-2998 colon): 1.75 µM
TGI (HCC-2998 colon): 3.42 µM
GI50 (RPMI-8226 leukemia): 1.82 µM
TGI (RPMI-8226 leukemia): 3.23 µM
GI50 (MCF7 breast): 1.79 µM
TGI (MCF7 breast): 3.21 µM
GI50 (COLO 205 colon): 2.27 µM
TGI (COLO 205 colon): 3.73 µM
GI50 (NCI-H460 NSCLC): 1.9 µM
TGI (NCI-H460 NSCLC): 3.5 µM
GI50 (SF-268 CNS): 1.97 µM
TGI (SF-268 CNS): 3.49 µM
GI50 (UACC-62 melanoma): 1.97 µM
TGI (UACC-62 melanoma): 3.4 µM
GI50 (SF-295 CNS): 1.48 µM
TGI (SF-295 CNS): 2.91 µM
GI50 (NCI/ADR-RES ovarian): 2.08 µM
TGI (NCI/ADR-RES ovarian): 3.74 µM
GI50 (OVCAR-5 ovarian): 1.62 µM
TGI (OVCAR-5 ovarian): 2.99 µM
GI50 (SK-OV-3 ovarian): 1.75 µM
TGI (SK-OV-3 ovarian): 3.28 µM
GI50 (HOP-92 NSCLC): 1.88 µM
TGI (HOP-92 NSCLC): 3.33 µM
GI50 (SK-MEL-2 melanoma): 3.02 µM
TGI (SK-MEL-2 melanoma): 4.53 µM
GI50 (SR leukemia): 1.89 µM
TGI (SR leukemia): 3.32 µM
GI50 (U251 glioblastoma): 2.01 µM
TGI (U251 glioblastoma): 3.63 µM
GI50 (NCI-H226 lung): 2 µM
TGI (NCI-H226 lung): 3.44 µM
GI50 (ACHN renal): 1.9 µM
TGI (ACHN renal): 3.32 µM
GI50 (MDA-MB-435 melanoma): 1.86 µM
TGI (MDA-MB-435 melanoma): 3.27 µM
GI50 (TK-10 renal): 3.37 µM
TGI (TK-10 renal): 10.6 µM
GI50 (HS 578T breast): 1.7 µM
TGI (HS 578T breast): 3.08 µM
GI50 (NCI-H322M lung): 2.51 µM
TGI (NCI-H322M lung): 5.8 µM
GI50 (A549 NSCLC): 1.91 µM
TGI (A549 NSCLC): 3.35 µM
GI50 (EKVX NSCLC): 1.75 µM
TGI (EKVX NSCLC): 3.15 µM
GI50 (NCI-H522 lung): 1.84 µM
TGI (NCI-H522 lung): 3.24 µM
GI50 (T-47D breast): 1.36 µM
TGI (T-47D breast): 2.66 µM
GI50 (786-0 renal): 1.84 µM
TGI (786-0 renal): 3.37 µM
GI50 (DU-145 prostate): 1.85 µM
TGI (DU-145 prostate): 3.28 µM
GI50 (OVCAR-4 ovarian): 2 µM
TGI (OVCAR-4 ovarian): 3.43 µM
GI50 (OVCAR-3 ovarian): 1.79 µM
TGI (OVCAR-3 ovarian): 3.22 µM
GI50 (SF-539 CNS): 1.89 µM
TGI (SF-539 CNS): 3.31 µM
GI50 (PC-3 prostate): 2.14 µM
TGI (PC-3 prostate): 4.98 µM
GI50 (KM12 colon): 2.06 µM
TGI (KM12 colon): 3.8 µM
